Key:
[1] = test system: MOG-specific hybridoma T cell clones; assay: Antigen processing independent presentation: peptides presented by live or p-formaldehyde fixed Mgar cells to T cell hybridoma clones, IL-2 production; format: cell-based, mice; details: FIG. 1; for identification as apitope: detailed study, overlapping peptides in region 25-60 displaced by one amino acid
Source text: A panel of 15-mer overlapping peptides spanning rhMOGED was synthesized using standard F-moc chemistry. […]
MOG-specific hybridoma T cell clones were generated by immunisation of DR2+ mice. DR2+ mice were immunised with either a pool of MOG overlapping peptides or rhMOGED in complete Freunds adjuvant (CFA). After 10 days, the spleen and draining lymph nodes were removed, CD4+ T cells were purified and restimulated with antigen/CFA in vitro. A week later, T cells were restimulated in vitro with antigen to increase the number of activated antigen-specific cells.
After 3 days, activated T cells were fused with the thymoma cell line BW 5147. Hybridoma clones were then selected using HAT selection medium and screened for peptide specificity by IL-2 ELISA.
Live or p-formaldehyde fixed Mgar (HLA-DR2+ve) cells were incubated with peptides in serum or in serum alone, together with T cells for 48 hours. The T cell proliferative response was measured by IL-2 production.

I-A^S = molecular target: T1, I-A^S (Mus musculus, UniProt P06345+P14437); details: cited from earlier work
T1 sequence (P14437 1-233): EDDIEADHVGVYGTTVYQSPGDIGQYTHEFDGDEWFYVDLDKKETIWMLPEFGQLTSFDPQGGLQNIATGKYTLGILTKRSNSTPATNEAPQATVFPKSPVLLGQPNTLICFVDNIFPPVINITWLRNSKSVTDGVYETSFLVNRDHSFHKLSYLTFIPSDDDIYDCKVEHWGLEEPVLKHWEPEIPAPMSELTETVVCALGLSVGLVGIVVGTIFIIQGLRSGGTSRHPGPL
T1 sequence (P06345 28-263): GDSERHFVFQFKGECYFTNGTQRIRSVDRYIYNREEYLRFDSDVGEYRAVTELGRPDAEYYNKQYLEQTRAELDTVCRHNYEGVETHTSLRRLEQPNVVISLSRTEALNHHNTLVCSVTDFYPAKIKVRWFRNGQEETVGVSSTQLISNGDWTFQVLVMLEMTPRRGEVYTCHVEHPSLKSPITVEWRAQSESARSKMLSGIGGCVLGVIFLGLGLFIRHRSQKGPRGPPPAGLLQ

[2] = administered in solution; Anderton and Wraith (1998); cited from earlier work
DR2 transgenic mice = assay: MOG-induced EAE model; format: in vivo; details: for Incidence (EAE) / Mean day of onset (EAE): Pertussis toxin day 0 and 2
Experimental: (§1) To test the capacity of ROK5 to prevent MOG-induced EAE in HLA-DR2 transgenic mice, the disease model was established in this strain of mice. To induce the disease, the encephalitogenic MOG peptide, mouse MOG 35-55 (mMOG35-55) was used. Then, ROK5 was tested in EAE prevention experiments as follows:
Two groups of DR2 transgenic mice were setup, at day zero, animals (n=7) in group “100 μg” received 100 μg mMOG35-55 in Complete Freund's Adjuvant (CFA) (100 μl, s.c., base of the tail injection), animals (n=8) in group “200 μg” received 200 μg mMOG35-55 in CFA. At day zero and day2, all animals received an injection of Pertussis toxin (200 ng in PBS, i.p.). Every day, clinical EAE was scored and animal body weight measured.

HLA-DR2 transgenic mice [3] = assay: ROK5 EAE prevention, second experiment (5 pre-treatments); format: in vivo; details: pretreated 5 times, 3 days apart, 100 μg s.c. flank; EAE by 200 μg mMOG35-55; FIG. 7
Experimental: as §1
Experiment 2: with 5 ROK5 dose pre-treatments, followed by immunisation with mMOG35-55.
(§2) In each experiment, 10 mice were used per group.
(§3) A second experiment was performed where animals were pretreated 5 times (3 days apart) with either human ROK5 or PBS, 100 μg in 100 μl in CFA (s.c. injection in the flank), then all animals were immunised with 200 μg mMOG35-55 in CFA (s.c. injection at the base of the tail) and with 200 ng Pertussis toxin (200 ng in PBS, i.p.) at day zero and day 2. Every day, clinical EAE was scored.

splenocytes = assay: Cytokine profiles of splenocyte supernatants after in vivo ROK5 pre-treatment, MOG35-55 immunisation and in vitro recall; set-up: species or system mice; details: ROK5 pretreatment vs PBS; FIG. 3
Experimental: (§4) HLA-DR2 transgenic mice were immunised with either 100 μg ROK5 (MOG 41-55), 100 μg MOG 35-55 or PBS on days −8, −4 and −2. On day 0, mice were challenged with 100 μg MOG 35-55 by injection in the tail base in combination with CFA.
The effect of ROK5 pre-treatment on various cytokine profiles was also investigated.

HLA-DR2 transgenic mice [4] = assay: Ex vivo tolerance assay: recall proliferation with MOG 35-55 after peptide pre-treatment and MOG 35-55/CFA challenge; details: 100 μg on days -8, -4 and -2; challenge 100 μg MOG 35-55 in CFA day 0; harvest day 10; FIG. 2
Experimental: as §4
On day 10, splenocytes and draining lymph nodes were harvested and their respective cell populations isolated and a recall proliferation assay was set up with MOG 35-55. Cells from individual mice were treated separately and data is plotted separately in FIG. 2. For the recall response cells were treated ex vivo with a dose range of MOG35-55 (100, 10, 1, 0.1, 0.01, 0 μg) and proliferation via ^3H-thymidine incorporation determined. Stimulation index (compared to proliferation with no antigen) was calculated for each condition.

HLA-DR2 transgenic mice [5] = assay: ROK5 EAE prevention, first experiment (3 pre-treatments); format: in vivo; details: pretreated 3 times, FIG. 6; for severity of the disease induced by MOG (clinical EAE score): 3 days apart, 100 μg s.c. flank, EAE by 200 μg mMOG35-55
Experimental: as §1
Experiment 1: with 3 ROK5 dose pre-treatments, followed by immunisation with mMOG35-55.
as §2
as §3, with “A first” for “A second”, “pretreated 3” for “pretreated 5”, “either mouse ROK5,” for “either”, “2.” for “2. Every day, clinical EAE was scored.”
Every day, clinical EAE was scored and animal body weight measured.

[6] = 100 μg mMOG35-55 in CFA s.c. base of tail, n=7
[7] = 200 μg mMOG35-55 in CFA s.c. base of tail, n=8

Question: With “FSRVVHLYRNGKDQD (listed as Homo sapiens) [MOG 44-58, MOG peptide 44-58, apitope]” as the substance, how does the identification as apitope [1] read?
Answer: identified as apitopes

Question: For “MBP [89-101]: myelin basic protein peptide 89-101, immunodominant antigen, not tolerogenic (PHLIRLFSRDAPG; UniProt P04370 89-101, looked up, fragment)”, which “affinity of binding to I-A^S” value (I-A^S) is on record?
Answer: relatively high affinity

Question: And the induction of tolerance [2]?
Answer: ineffective at inducing tolerance

Question: For “MEVGWYRSPFSRVVHLYRNGK (listed as Mus musculus) [mMOG35-55, encephalitogenic MOG peptide used to induce EAE]”, which “Incidence (EAE)” value (DR2 transgenic mice; [6]) is on record?
Answer: 4/7

Question: What about the “Mean day of onset (EAE)” value (DR2 transgenic mice; [6]) of the same substance?
Answer: 12.25 days

Question: And the “Incidence (EAE)” value (DR2 transgenic mice; [7])?
Answer: 7/8

Question: And the “Mean day of onset (EAE)” value (DR2 transgenic mice; [7])?
Answer: 12 days

Question: And the “induction of EAE” value (DR2 transgenic mice; both doses (100 μg and 200 μg), FIGS. 5A, 5B)?
Answer: can induce EAE with a good incidence

Question: Which identification as apitope [1] does the source give for “PFSRVVHLYRNGKDQ (listed as Homo sapiens) [MOG 43-57, MOG peptide 43-57, apitope]” here?
Answer: identified as apitopes

Question: Which results are given for “RPPFSRVVHLYRNGK (listed as Homo sapiens) [ROK5, human MOG peptide 41-55, apitope]”?
Answer: peak of disease burden (timing) (HLA-DR2 transgenic mice [3]): caused a delay in the peak of disease burden; severity of disease (clinical EAE score) (HLA-DR2 transgenic mice [3]): reduced the severity of disease; production of GM-CSF by splenocytes (splenocytes): clearly affected; production of IFNγ by splenocytes (splenocytes): clearly affected; production of IL6 by splenocytes (splenocytes): clearly affected; production of IL-2 by splenocytes (splenocytes): clearly affected; immune response to challenge with MOG 35-55 (recall proliferation, stimulation index) (HLA-DR2 transgenic mice [4]): able to suppress the immune response; presentation by fixed APC to T cells without further processing (apitope) ([1]; 15-mer peptides displaced by 5aa, fixed APC): could be presented by fixed APC to T cells without further processing; identification as apitope [1]: identified as apitopes; efficiency of human ROK5 compared with mouse ROK5 in reducing EAE severity (HLA-DR2 transgenic mice [5]; 100 μg): more efficient; severity of the disease induced by MOG (clinical EAE score) (HLA-DR2 transgenic mice [5]): can reduce the severity of the disease

Question: Which “severity of the disease induced by MOG (clinical EAE score)” value (HLA-DR2 transgenic mice [5]) does the source give for “RSPFSRVVHLYRNGK (listed as Mus musculus) [mouse ROK5, mouse MOG 41-55, serine in position 42]” here?
Answer: can reduce the severity of the disease

Question: With “SRVVHLYRNGKDQDG (listed as Homo sapiens) [MOG 45-59, MOG peptide 45-59, apitope]” as the substance, how does the identification as apitope [1] read?
Answer: identified as apitopes

Reference: US10377800B2, “Myelin oligodendrocyte glycoprotein (MOG) peptide” (APITOPE TECHNOLOGY (BRISTOL) LIMITED, priority 2013, dated 2019)
